# Test results reported in PMC7845594, “Novel Immune Modulators Enhance Caenorhabditis elegans Resistance to Multiple Pathogens” (mSphere, 2021).
# Key:
# C. elegans transcriptome = assay: Transcriptome profiling (Affymetrix microarrays), differentially expressed genes; type: in vivo, Caenorhabditis elegans; conditions: downregulated genes
# Procedure, shortened: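 Wild-type young-adult C. elegans (~6,000 per condition, triplicate) were exposed to each drug at 100 µM or to DMSO for 8 h without pathogen. TRIzol/RNeasy RNA was profiled on Affymetrix arrays. Fold changes were normalized to each gene's mean across conditions and clustered by Euclidean distance with average linkage.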
# [1] = system: glp-4(bn2) worms exposed to P. aeruginosa isolate PA2-61; assay: Liquid killing assay with cystic fibrosis isolate; type: in vivo, Caenorhabditis elegans; conditions: isolate PA2-61, serial 2-fold dilutions from 50 µM to 12.5 μM
# Procedure: We also tested these strains against a P. aeruginosa isolate from a pediatric cystic fibrosis patient, P. aeruginosa PA2-61, that we previously characterized ([22]).
# The minimum effective concentration was calculated from the lowest concentration that retained statistically significant rescue of glp-4(bn2) C. elegans, a temperature-sensitive sterile strain, from exposure to P. aeruginosa PA14. […] Compounds were added in serial 2-fold dilutions from 50 µM to 12.5 μM. *, P < 0.05; **, P < 0.01; ***, P < 0.001. P values were calculated using Student’s t test. At least six wells containing 20 worms each per condition per replicate were used for determination of liquid killing. EC values were calculated based on at least three biological replicates. Error bars represent the standard error of the mean.
# Liquid killing of C. elegans was performed as previously described with some changes ([91]). In brief, an overnight culture of LB medium was inoculated with a single colony of Pseudomonas aeruginosa strain PA14. Then, 400 µl of culture was spread onto a 10-cm slow-kill agar plate ([91]) and grown for 24 h at 37°C, followed by 24 h at 25°C. Bacteria were scraped from the plate, resuspended in S Basal medium, and added to 384-well plates with small molecules dissolved in DMSO. Solution in wells contained a final concentration of 40% SK media, 59% S Basal medium, 1% DMSO, and small molecules. For all liquid-based killing assays, solvent control wells contained 1% DMSO. MgSO4 and CaCl2 (300 µM) and cholesterol (1.6 µg/ml) were added to aid in production of virulence factors. Worms were sorted into 384-well plates using a COPAS FlowSort (Union Biometrica, Holliston, MA), incubated at 25°C until the DMSO control was roughly 35 to 55% dead, washed four times using an EL406 microplate washer (BioTek, VT), and stained with 50 μl of Sytox Orange at 1 µM to fluorescently stain dead worms. Wells were imaged in bright-field and RFP channels using the BioTek Cytation5, followed by image analysis using the CellProfiler software package to calculate fraction of dead worms in each well. […]
# glp-4(bn2) worms = assay: Longevity (life span) assay; conditions: 50 μM in NGM, E. coli OP50, Fig 3A
smiles,measurement,setting,value
O=c1cc(CNc2ccc(Br)cc2)nc2sccn12 [LK56],Fold Change,"C. elegans transcriptome; Gene F37C12.7, Affy_ID 174751_at",0.2156
same,Fold Change,"C. elegans transcriptome; Gene R11.4, Affy_ID 177194_at",0.488
same,Fold Change,"C. elegans transcriptome; Gene Y92C3B.2, Affy_ID 175744_s_at",0.43
same,Dose dependence of rescue in liquid killing,[1],dose-dependent rescue
same,"TD50 (time to 50% death), life span",glp-4(bn2) worms,7.8 days
